The results in this text go back to paper PMC4664966, “Discovery and characterization of novel inhibitors of the sodium-coupled citrate transporter (NaCT or SLC13A5)” (Scientific Reports, 2015).

In one data set the test system is DIO mice. The data set can be described thus: Plasma glucose concentrations in DIO mice, acute or sub-chronic dosing. Particulars: single 250 mg/kg dose or 3 days 250 mg/kg BID.
Data set [1] addresses Serotonin receptor 2A (5-HT2A) (Homo sapiens, UniProt P28223). Description: Selectivity data (Table S1). Format: binding.
Data set [2] has as its target Monoacylglycerol acyltransferase 1 (MGAT1) (Homo sapiens, UniProt Q96PD6). Description: Selectivity data (Table S1). The format is biochemical.
Data set [3] in a line: Passive permeability, MDCK-LE cell monolayer. The format is in vitro ADME. Particulars: dog; MDCK-LE cell monolayer; read-out: Papp (apparent passive permeability). On the procedure:
Passive permeability was assessed using MDCK-LE cell monolayer as described previously in Di et al., (2011)[44].

Data set [4] addresses Monoacylglycerol acyltransferase 3 (MGAT3) (Homo sapiens, UniProt Q86VF5). Description: Selectivity data (Table S1). Format: biochemical.
In data set [5] the target is Muscarinic acetylcholine receptor 2 (M2) (Homo sapiens, UniProt P08172). Description: Selectivity data (Table S1). The format is binding.
Data set [6] concerns the target Muscarinic acetylcholine receptor 1 (M1) (Homo sapiens, UniProt P11229). The data set can be described thus: Selectivity data (Table S1). The format is binding.
Data set [7] concerns the target Serotonin transporter, sodium-dependent (5-HTT) (Homo sapiens, UniProt P31645). The data set can be described thus: Selectivity data (Table S1).
In data set [8] the target is Epidermal growth factor receptor (EGFR) (Homo sapiens, UniProt P00533). The data set can be described thus: Selectivity data (Table S1). Format: binding.
The target of data set [9] is Adenosine receptor A1 (ADORA1) (Homo sapiens, UniProt P30542). The data set can be described thus: Selectivity data (Table S1). Format: binding.
Sequence of Adenosine receptor A1 (ADORA1) (P30542 whole entry): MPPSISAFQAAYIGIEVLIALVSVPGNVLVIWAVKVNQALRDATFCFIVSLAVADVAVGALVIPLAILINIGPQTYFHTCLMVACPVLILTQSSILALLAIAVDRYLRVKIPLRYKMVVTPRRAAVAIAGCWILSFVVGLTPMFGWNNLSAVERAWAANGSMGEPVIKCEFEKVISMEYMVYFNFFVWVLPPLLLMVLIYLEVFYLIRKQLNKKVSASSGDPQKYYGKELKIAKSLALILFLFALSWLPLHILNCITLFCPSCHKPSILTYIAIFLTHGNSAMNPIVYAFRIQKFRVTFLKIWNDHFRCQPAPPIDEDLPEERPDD
For data set [10], the target named is Adrenergic receptor, beta-1 (ADRB1) (Homo sapiens, UniProt P08588). Description: Selectivity data (Table S1). The format is binding.
In the next data set the target is CYP2C8 (Homo sapiens, UniProt P10632). Description: Selectivity data (Table S1). Format: in vitro ADME. Particulars: 3 µM.
Data set [11] addresses Cytochrome P450 2C8 (CYP2C8) (Homo sapiens, UniProt P10632). The data set can be described thus: Selectivity data (Table S1). The format is in vitro ADME.
Data set [12] concerns the target Proto-oncogene tyrosine-protein kinase (SRC) (Homo sapiens, UniProt P12931). The data set can be described thus: Selectivity data (Table S1). Format: biochemical.
A further data set deals with HEKNaCT cells. The data set can be described thus: OCR and ECAR measurements in HEKNaCT cells incubated with citrate (Seahorse). Format: cell-based, human. Particulars: 30 μM compound. The procedure:
HEKNaCT cells were plated at 12,000 cells/well onto a poly-d-lysine coated XF96 plate (Sigma, Seahorse Biosciences). Cells were plated in culture media containing HG DMEM, 10% FBS, 2 mM glutamine, 1 mM pyruvate, 0.5 mg/mL Geneticin, and 1% penicillin/streptomycin (Life Technologies) and incubated overnight at 37 °C. The following day, the media was changed to Seahorse Biosciences assay medium (Seahorse Biosciences) supplemented with 10 mM glucose and 2 mM pyruvate (Sigma). The plate was pre-incubated for 1 hour in a 37 °C air incubator. […]

Data set [13] deals with Sodium channel, type V, alpha-subunit (NaV1.5) (Homo sapiens, UniProt Q14524). Description: Selectivity data (Table S1).
Sequence of Sodium channel, type V, alpha-subunit (NaV1.5) (Q14524 whole entry): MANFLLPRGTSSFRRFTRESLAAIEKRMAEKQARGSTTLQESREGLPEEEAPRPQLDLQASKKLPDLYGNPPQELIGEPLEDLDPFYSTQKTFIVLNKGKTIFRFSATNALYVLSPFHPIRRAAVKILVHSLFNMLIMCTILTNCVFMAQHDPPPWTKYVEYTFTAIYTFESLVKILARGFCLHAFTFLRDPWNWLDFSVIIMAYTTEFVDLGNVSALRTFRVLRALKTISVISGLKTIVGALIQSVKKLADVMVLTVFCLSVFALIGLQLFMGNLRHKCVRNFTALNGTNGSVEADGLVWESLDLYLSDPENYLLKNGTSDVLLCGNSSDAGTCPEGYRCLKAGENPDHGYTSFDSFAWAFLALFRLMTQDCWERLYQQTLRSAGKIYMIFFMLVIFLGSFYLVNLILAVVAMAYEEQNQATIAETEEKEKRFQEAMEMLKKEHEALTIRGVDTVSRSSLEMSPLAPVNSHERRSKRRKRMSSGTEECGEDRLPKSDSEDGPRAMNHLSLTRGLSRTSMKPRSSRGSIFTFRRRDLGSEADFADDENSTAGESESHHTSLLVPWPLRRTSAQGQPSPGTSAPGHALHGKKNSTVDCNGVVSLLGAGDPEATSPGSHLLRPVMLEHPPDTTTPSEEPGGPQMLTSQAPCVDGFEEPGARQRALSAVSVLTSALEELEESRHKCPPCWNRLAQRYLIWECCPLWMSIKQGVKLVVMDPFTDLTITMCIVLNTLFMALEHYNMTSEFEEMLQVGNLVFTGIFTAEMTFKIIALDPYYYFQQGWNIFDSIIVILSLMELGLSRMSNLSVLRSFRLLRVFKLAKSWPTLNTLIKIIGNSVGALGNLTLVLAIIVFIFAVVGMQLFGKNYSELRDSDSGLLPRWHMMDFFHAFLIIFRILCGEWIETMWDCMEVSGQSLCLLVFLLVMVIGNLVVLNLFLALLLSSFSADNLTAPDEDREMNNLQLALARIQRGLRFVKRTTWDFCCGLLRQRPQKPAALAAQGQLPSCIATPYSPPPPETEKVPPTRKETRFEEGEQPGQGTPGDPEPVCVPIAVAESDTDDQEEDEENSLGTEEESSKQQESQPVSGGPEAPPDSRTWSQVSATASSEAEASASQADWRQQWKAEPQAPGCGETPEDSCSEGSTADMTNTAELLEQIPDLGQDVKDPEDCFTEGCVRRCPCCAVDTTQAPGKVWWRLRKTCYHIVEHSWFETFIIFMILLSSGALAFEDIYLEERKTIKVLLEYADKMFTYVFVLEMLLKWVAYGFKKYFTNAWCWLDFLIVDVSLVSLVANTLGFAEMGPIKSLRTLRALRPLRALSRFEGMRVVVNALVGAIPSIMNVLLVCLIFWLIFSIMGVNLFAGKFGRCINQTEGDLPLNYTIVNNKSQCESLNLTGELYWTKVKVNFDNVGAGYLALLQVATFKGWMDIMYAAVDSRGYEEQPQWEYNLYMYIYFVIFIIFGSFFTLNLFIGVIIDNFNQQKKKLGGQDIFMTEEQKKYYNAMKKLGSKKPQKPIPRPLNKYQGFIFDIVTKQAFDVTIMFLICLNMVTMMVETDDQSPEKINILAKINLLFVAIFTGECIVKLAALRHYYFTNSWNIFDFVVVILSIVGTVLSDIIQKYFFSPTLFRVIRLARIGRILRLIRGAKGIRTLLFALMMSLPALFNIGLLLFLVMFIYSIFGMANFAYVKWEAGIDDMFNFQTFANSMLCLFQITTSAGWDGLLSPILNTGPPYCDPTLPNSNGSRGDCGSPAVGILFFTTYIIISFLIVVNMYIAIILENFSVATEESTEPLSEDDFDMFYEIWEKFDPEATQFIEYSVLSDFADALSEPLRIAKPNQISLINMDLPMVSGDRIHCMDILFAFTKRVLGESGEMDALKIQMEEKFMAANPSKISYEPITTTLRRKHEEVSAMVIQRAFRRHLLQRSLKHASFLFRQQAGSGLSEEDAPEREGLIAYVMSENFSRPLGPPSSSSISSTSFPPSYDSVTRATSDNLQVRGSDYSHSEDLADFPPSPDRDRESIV
Data set [14] deals with Human ether-a-go-go (hERG) (Homo sapiens, UniProt Q12809). Description: Selectivity data (Table S1).
Sequence of Human ether-a-go-go (hERG) (Q12809 whole entry): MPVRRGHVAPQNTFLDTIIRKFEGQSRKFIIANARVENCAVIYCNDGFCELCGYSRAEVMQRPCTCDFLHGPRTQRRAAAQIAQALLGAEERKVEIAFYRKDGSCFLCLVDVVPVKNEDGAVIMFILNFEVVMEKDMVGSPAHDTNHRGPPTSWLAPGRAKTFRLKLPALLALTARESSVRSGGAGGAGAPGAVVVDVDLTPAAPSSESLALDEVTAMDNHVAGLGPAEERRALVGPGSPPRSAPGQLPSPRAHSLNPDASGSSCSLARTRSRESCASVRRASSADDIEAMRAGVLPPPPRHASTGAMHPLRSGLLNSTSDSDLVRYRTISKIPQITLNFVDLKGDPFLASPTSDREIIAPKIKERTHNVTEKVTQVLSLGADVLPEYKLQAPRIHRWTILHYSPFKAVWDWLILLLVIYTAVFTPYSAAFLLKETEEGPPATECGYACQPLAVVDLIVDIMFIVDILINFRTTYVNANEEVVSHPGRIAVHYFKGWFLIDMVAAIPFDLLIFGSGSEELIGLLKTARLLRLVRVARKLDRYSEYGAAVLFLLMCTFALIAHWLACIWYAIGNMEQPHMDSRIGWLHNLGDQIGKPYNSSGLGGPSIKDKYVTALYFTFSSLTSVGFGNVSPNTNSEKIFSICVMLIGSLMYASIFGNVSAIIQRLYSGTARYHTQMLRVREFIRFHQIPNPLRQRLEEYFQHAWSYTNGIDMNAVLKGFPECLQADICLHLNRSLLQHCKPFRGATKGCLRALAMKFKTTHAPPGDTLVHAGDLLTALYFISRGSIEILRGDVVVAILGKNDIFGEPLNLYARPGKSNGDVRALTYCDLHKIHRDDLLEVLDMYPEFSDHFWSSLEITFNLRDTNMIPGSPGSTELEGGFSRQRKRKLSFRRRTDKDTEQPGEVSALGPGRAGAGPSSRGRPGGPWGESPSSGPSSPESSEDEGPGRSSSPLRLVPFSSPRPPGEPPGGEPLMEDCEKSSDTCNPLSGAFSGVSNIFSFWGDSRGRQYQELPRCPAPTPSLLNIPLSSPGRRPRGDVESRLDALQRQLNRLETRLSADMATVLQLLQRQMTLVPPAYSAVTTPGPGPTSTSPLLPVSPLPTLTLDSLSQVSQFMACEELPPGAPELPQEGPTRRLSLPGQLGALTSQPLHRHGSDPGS
In data set [15] the target is Glucocorticoid receptor (GR) (Homo sapiens, UniProt P04150). The data set can be described thus: Selectivity data (Table S1). Format: binding.

Where only a bound is given, the exact number is not on record here.

Sequence of Monoacylglycerol acyltransferase 1 (MGAT1) (Q96PD6 whole entry): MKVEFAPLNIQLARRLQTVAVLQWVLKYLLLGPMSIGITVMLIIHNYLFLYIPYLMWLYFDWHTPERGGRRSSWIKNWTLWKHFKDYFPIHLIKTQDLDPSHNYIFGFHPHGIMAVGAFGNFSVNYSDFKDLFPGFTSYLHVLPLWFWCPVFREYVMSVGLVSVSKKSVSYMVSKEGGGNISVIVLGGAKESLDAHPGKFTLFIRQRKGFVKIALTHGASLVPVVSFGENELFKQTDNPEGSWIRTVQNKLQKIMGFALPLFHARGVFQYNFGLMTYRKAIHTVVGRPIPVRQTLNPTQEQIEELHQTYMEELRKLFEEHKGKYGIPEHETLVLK
Sequence of Muscarinic acetylcholine receptor 1 (M1) (P11229 whole entry): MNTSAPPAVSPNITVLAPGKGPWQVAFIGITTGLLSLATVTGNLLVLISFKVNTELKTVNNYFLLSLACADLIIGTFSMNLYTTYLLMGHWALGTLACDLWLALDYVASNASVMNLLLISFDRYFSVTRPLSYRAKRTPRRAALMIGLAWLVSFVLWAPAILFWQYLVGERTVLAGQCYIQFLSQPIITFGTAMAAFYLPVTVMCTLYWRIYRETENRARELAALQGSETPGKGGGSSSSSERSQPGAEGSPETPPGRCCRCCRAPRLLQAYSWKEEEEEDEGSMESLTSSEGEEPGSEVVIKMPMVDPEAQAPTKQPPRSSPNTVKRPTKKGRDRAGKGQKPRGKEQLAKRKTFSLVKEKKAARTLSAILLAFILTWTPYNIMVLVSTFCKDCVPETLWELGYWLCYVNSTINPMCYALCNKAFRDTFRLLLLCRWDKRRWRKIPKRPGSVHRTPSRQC
Sequence of Serotonin transporter, sodium-dependent (5-HTT) (P31645 whole entry): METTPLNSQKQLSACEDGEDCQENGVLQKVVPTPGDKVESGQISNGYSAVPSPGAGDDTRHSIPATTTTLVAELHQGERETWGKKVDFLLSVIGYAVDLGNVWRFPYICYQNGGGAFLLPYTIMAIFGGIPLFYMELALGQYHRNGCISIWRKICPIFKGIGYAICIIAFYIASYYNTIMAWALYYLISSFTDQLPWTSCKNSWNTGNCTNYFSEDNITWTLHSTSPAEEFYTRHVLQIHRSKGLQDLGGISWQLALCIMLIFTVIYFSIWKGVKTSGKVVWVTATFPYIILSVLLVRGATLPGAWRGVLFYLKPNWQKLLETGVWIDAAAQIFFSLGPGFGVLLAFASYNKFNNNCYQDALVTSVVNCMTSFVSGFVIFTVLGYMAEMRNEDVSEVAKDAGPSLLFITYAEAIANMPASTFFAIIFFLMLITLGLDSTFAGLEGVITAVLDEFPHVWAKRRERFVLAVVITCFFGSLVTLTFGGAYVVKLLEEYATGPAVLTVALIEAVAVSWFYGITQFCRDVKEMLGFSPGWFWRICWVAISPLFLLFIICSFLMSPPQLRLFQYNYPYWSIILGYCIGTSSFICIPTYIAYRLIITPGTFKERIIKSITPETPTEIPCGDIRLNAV

By inhibition is commonly meant how much of the control response was suppressed. What is called IC50 is the concentration that inhibits the measured activity by half. A lower IC50 goes with higher potency. As a reminder, the Papp is a coefficient for how fast a substance crosses the barrier. As to `CC(C)(C)c1ccc(CC[C@@](O)(CC(=O)O)C(=O)O)cc1` [Compound 2], in the data set on DIO mice, the plasma glucose concentrations entry is “modest but significant reductions”. For the same compound, the inhibition at 100 µM in [1], in data set [5], in data set [6], in [7], in [8] and in data set [9] was less than 10% throughout. The inhibition at 100 µM in data set [10], in [12] and in data set [15] was less than 10% throughout. The IC50 is more than 50 µM in data set [2], more than 50 µM in [4] and more than 100 µM in data set [14]. For the same compound, in [3], the Papp was 1.4 ×10⁻⁶ cm/s. On CYP2C8, this compound came in with an inhibition at 3 µM of less than 10%. Further, the “interaction/inhibition of CYP2C8” value in data set [11] is given as “no significant interaction/inhibition”. For the same compound, the “effect on citrate induced increase in oxygen consumption rate (OCR)” value in the data set on HEKNaCT cells is reported as “prevented citrate induced increase in mitochondrial respiration”. Moreover, in the data set with HEKNaCT cells (citrate), the “effect on citrate suppressed extracellular acidification rate (ECAR)” value was “restored”. This compound registered an inhibition at 10 µM in data set [13] of less than 10%. In addition, the “interaction/inhibition of the hERG channel” value in [14] is “no significant interaction/inhibition”.
